{"source": "paper PMC8640168", "about": "(Current Research in Structural Biology, 2021)", "target": "SaPgsA (Staphylococcus aureus, UniProt P63756)", "assay": "[…]-G3P incorporation into chloroform-soluble PGP, scintillation counting", "assay_type": "biochemical", "conditions": "1.6 mM [14C]-G3P, 100 mM MgCl2, 20 mM Triton X-100, 100 mM Tris-HCl pH 8.0, 27 C, 50 nM enzyme; detergent micelle (bulk concentration)", "data": [{"substance": "CDP-DAG", "values": [{"measurement": "Km", "value": 400, "unit": "µM"}]}]}
